Reference: ChEMBL document CHEMBL3045681, “Synthesis and evaluation of new 1,2,3,4-tetrahydroisoquinoline analogs as antiglioma agents” (Med Chem Res, 2011)

Experiments:
C6 [1] = assay: Cytotoxicity against Rattus norvegicus (rat) C6 cells after 4 days by cresylecth violet-staining method; assay type: functional, cell-based
[2] = Cytotoxicity against Rattus norvegicus Sprague-Dawley (rat) astrocytes after 4 days by cresylecth violet-staining method; assay type: cell-based, Astrocyte
C6 [3] = assay: Ratio of EDL-155 EC50 to compound EC50 for Rattus norvegicus (rat) C6 cells; assay type: functional
[4] = Rattus norvegicus, Sprague-Dawley, Astrocyte, 96 h, read-out: EC50

| SMILES | EC50 (C6 [1]; Rattus norvegicus, C6, 96 h) [µM] | EC50 [2, 4] [µM] | further results |
| --- | --- | --- | --- |
| O=NN(CCCl)C(=O)NCCCl [CARMUSTINE] | 4.8 | 54.8 |  |
| Oc1cc2c(cc1O)C(Cc1ccc(-c3ccccc3)cc1)NCC2 (racemic) | 1.5 | 27.4 |  |
| COc1ccccc1-c1ccc(CC2c3c(O)cc(O)cc3CCN2C(=O)OC(C)(C)C)cc1 (stereo not drawn) | 7.34 | 67.5 |  |
| COc1cc2c(c(OC)c1)C(Cc1ccc(-c3ccccc3OC)cc1)NCC2 (single isomer, unassigned; (+)) |  |  | EC50 (C6 [1]; c6): 0.26 µM; EC50 ([2]; astrocyte, read-out: EC50): 13.1 µM |
| COc1cc2c(c(OC)c1)C(Cc1ccc(-c3ccccc3OC)cc1)N(C(=O)OC(C)(C)C)CC2 (stereo not drawn) | 59.7 |  | EC50 ([2]; astrocyte): Not Active |
| Oc1cc(O)c2c(c1)CCNC2Cc1ccc(-c2ccccc2)cc1 (stereo not drawn) | 2.09 | 11.9 |  |
| COc1cc2c(c(OC)c1)C(Cc1ccc(-c3ccccc3OC)cc1)NCC2.Cl (stereo in doubt; 25) |  |  | EC50 (C6 [1]; c6): 0.63 µM; Ratio EC50 (C6 [3]): 2.4; EC50 ([2]; astrocyte, read-out: EC50): 10.8 µM |
| COc1cc2c(c(OC)c1)C(Cc1ccc(Br)cc1)N(C(=O)OC(C)(C)C)CC2 (stereo not drawn) | 10.1 | 28.1 |  |
| Oc1cc(O)c2c(c1)CCNC2Cc1ccc(Br)cc1 (stereo not drawn) | 12.6 | 23.9 |  |
| COc1cc2c(c(OC)c1)C(Cc1ccc(-c3ccccc3)cc1)N(C(=O)OC(C)(C)C)CC2 (stereo not drawn) | 7.54 |  | EC50 ([2]; astrocyte): Not Active |
| COc1cc2c(c(OC)c1)C(Cc1ccc(-c3ccccc3)cc1)NCC2 (stereo not drawn) | 2.31 | 8.95 |  |
| COc1cc2c(c(OC)c1)C(Cc1ccc(-c3ccccc3OC)cc1)NCC2 (stereo in doubt; (-)25) |  | 15.7 | EC50 (C6 [1]; c6): 5.39 µM |
| CC(C)(C)OC(=O)N1CCc2cc(O)cc(O)c2C1Cc1ccc(Br)cc1 (stereo not drawn) | 7.04 | 9.97 |  |
| CC(C)(C)OC(=O)N1CCc2cc(O)cc(O)c2C1Cc1ccc(-c2ccccc2)cc1 (stereo not drawn) | 4.97 | 8.58 |  |
| COc1ccccc1-c1ccc(CC2NCCc3cc(O)cc(O)c32)cc1 (stereo not drawn) | 2.61 | 15.7 |  |
| Cn1nnc2c(C(N)=O)ncn2c1=O [TEMOZOLOMIDE] | 16.5 | 51.8 |  |
